Test results reported in patent EP0539086B1, “Condensed pyrimidine derivatives and their use as angiotensine II antagonists” (AMERICAN HOME PRODUCTS CORPORATION, priority 1991, dated 1993).

Test system: A II-infused rat
Test: A II-infused rat model (antihypertensive action)
Type: in vivo
Conditions: 3 mg/kg id, average, four hours post-administration, anesthetized ganglion-blocked rats with A II infusion
Description: In accordance with their ability to antagonize angiotensin II, the compounds of this invention show antihypertensive action in the following A II-infused rat model. Procedure: Rats are anesthetized with Dial-Urethane (0.60 mL/kg, ip) and the trachea cannulated with PR 240. Either one femoral artery and both femoral veins or the carotid artery and the corresponding jugular vein are cannulated with PE 50. If the jugular vein is cannulated, two cannulas are placed in the one vein. The initial portion of the duodenum (just distal to the stomach) is cannulated with PE 50 via a small midline incision. Arterial pressure and heart rate are measured from the arterial cannula. Ten to 15 min are allowed following surgery for stabilization of arterial pressure. Ganglion blockade is then produced by intravenous administration of mecamylamine at 3 mg/kg (1 mL/kg of a 3 mg/mL solution). Ganglion blockade causes a fall in arterial pressure of about 50 mmHg. Mecamylamine is given every 90 min throughout the remainder of the experiment. An A II infusion is then begun into the other venous cannula at 0.25 µg/kg min (at 9.6 µL/min). The A II infusion returns arterial pressure to or slightly above the control level. Once arterial pressure has stabilized with the A II infusion, baseline values for mean arterial pressure (MAP) and heart rate are taken. […]

For Cc1nc(C)c2c(n1)N(Cc1ccc(-c3ccccc3-c3nnn[nH]3)cc1)C(=O)C2 [Example 1, 2,4-Dimethyl-5,7-dihydro-7-[[2'-(1H-tetrazol-5-yl)[1,1-bi-phenyl]-4-yl]methyl]-6H-pyrrolo[2,3-d]pyrimidin-6-one], the “lowered the A II dependent blood pressure” value was 41%.
